Source: publication PMC10763615, “Identification and engineering of potent cyclic peptides with selective or promiscuous binding through biochemical profiling and bioinformatic data analysis” (RSC Chemical Biology, 2023)
Where two headings read alike, the source gives them in different places. Positions of bridges follow the written chain, without caps; N, C: chain ends. Residues, ends and D or L forms follow the SMILES beside them.

Key:
Format in all cases: binding
FGF-R4 ECD = target: T1, FGF-R4 ECD (Homo sapiens, UniProt P22455); assay: single concentration BLI of crude peptides; details: read-out: KD (4)
T1 construct: DNA constructs for the extracellular domain (ECD) of human FGF-; HPC4 (C); made in house; host or cells: HEK 293-6E
T1 sequence (P22455 22-369 limits assumed): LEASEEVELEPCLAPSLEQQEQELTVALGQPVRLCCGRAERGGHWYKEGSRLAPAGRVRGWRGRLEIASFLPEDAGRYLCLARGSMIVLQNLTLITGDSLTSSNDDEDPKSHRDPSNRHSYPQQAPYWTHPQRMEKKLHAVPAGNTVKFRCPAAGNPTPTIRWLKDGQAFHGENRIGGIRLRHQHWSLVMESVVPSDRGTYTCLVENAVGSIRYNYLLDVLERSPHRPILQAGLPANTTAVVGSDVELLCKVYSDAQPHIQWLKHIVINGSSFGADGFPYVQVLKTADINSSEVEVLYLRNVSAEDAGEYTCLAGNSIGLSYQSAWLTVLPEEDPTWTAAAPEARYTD
In short: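 BLI, streptavidin sensors loaded with biotinylated receptor ECD. Single-point: ~1 μM crude peptide, PBS pH7.4/0.05% Tween-20/0.01% BSA; association then dissociation in buffer. KD corrected for UPLC-CAD-determined concentration.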

FGF-R3C ECD = target: T2, FGF-R3C ECD (Homo sapiens, UniProt P22607); assay: biochemical; set-up: DNA constructs for the extracellular domain (ECD) of human FGF-; HPC4 (C); made in house; host or cells: HEK 293-6E
T2 sequence (P22607 23-375 limits assumed): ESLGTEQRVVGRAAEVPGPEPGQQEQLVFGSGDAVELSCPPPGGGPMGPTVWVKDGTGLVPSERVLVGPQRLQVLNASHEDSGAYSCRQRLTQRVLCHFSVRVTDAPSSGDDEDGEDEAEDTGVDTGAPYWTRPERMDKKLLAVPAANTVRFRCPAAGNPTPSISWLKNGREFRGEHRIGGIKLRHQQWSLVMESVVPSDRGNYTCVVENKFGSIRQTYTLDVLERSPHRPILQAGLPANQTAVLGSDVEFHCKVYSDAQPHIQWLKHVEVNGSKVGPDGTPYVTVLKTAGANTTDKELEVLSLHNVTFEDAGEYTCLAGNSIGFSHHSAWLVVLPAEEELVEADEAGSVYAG
In short: (§1)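 Biolayer interferometry with biotinylated FGF-R ECD on streptavidin biosensors in PBS pH 7.4, 0.05% Tween-20, 0.01% BSA. Multi-concentration: purified peptide dilution series fitted to a multi-point KD model.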

FGF-R1C ECD = target: T3, FGF-R1C ECD (Homo sapiens, UniProt P11362); assay: biochemical; set-up: DNA constructs for the extracellular domain (ECD) of human FGF-; HPC4 (C); made in house; host or cells: HEK 293-6E
T3 sequence (P11362 22-376 limits assumed): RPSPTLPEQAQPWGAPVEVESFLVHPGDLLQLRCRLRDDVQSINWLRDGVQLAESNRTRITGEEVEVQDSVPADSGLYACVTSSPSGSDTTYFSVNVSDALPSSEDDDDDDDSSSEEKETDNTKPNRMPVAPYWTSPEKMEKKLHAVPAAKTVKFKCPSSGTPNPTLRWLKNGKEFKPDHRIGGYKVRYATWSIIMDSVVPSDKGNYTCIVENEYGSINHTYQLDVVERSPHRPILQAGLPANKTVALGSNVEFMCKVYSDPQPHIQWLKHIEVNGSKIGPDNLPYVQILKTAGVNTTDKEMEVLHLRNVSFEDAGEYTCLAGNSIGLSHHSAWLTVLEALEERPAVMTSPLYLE
In short: as §1

[1] = crude T18 selection 1 (1:1:1) peptides, single concentration BLI (Table S4)

SMILES | Kd (FGF-R4 ECD; [1]) [nM] | Kd (FGF-R3C ECD) [nM] | Kd (FGF-R1C ECD) [nM] | Kd (FGF-R4 ECD; crude NNK peptides, single concentration BLI (Table S3)) [nM]
CC[C@H](C)[C@@H]1NC(=O)[C@H](CCCCN)NC(=O)[C@H](Cc2ccc(O)cc2)NC(=O)[C@H](Cc2c[nH]c3ccccc23)NC(=O)[C@H](CC(C)C)NC(=O)[C@H](C(C)C)NC(=O)[C@H]([C@@H](C)O)NC(=O)[C@H](Cc2ccc(O)cc2)NC(=O)[C@H](CC(C)C)NC(=O)[C@H](CC(=O)O)NC(=O)[C@@H](NC(=O)[C@H](CCSC)NC(C)=O)CSSC[C@@H](C(=O)NCC(=O)N[C@@H](CO)C(=O)NCC(=O)N[C@@H](CO)C(=O)N[C@@H](CC(=O)O)C(=O)N[C@@H](Cc2ccc(O)cc2)C(=O)N[C@@H](CCCCN)C(=O)N[C@@H](CC(=O)O)C(=O)N[C@@H](CC(=O)O)C(=O)N[C@@H](CC(=O)O)C(=O)N[C@@H](CC(=O)O)C(=O)N[C@@H](CCCCN)C(N)=O)NC(=O)[C@H](CCC(=O)O)NC(=O)[C@H](CCCCN)NC(=O)[C@H](CCC(N)=O)NC1=O (Ac-MCDLYTVLWYKIQKECGSGSDYKDDDDK-NH2; disulfide 2-16) | 19 | > 10000 | 21 | 
CSCC[C@H](NC(C)=O)C(=O)N[C@H]1CSSC[C@@H](C(=O)NCC(=O)N[C@@H](CO)C(=O)NCC(=O)N[C@@H](CO)C(=O)N[C@@H](CC(=O)O)C(=O)N[C@@H](Cc2ccc(O)cc2)C(=O)N[C@@H](CCCCN)C(=O)N[C@@H](CC(=O)O)C(=O)N[C@@H](CC(=O)O)C(=O)N[C@@H](CC(=O)O)C(=O)N[C@@H](CC(=O)O)C(=O)N[C@@H](CCCCN)C(N)=O)NC(=O)[C@H](Cc2ccc(O)cc2)NC(=O)[C@H](C(C)C)NC(=O)[C@H](Cc2ccc(O)cc2)NC(=O)[C@H](Cc2c[nH]c3ccccc23)NC(=O)[C@H](CO)NC(=O)[C@H](CCCCN)NC(=O)[C@H](Cc2c[nH]cn2)NC(=O)[C@H](Cc2ccc(O)cc2)NC(=O)[C@H](Cc2ccc(O)cc2)NC(=O)[C@H](Cc2ccccc2)NC(=O)[C@H](Cc2c[nH]c3ccccc23)NC(=O)[C@H](CCC(=O)O)NC1=O (Ac-MCEWFYYHKSWYVYCGSGSDYKDDDDK-NH2; disulfide 2-15) | > 10000 | > 10000 | 191 | 
CSCC[C@H](NC(C)=O)C(=O)N[C@H]1CSSC[C@@H](C(=O)NCC(=O)N[C@@H](CO)C(=O)NCC(=O)N[C@@H](CO)C(=O)N[C@@H](CCC(=O)O)C(=O)N[C@@H](CCC(=O)O)C(=O)NCC(=O)N[C@@H](CO)C(=O)NCC(=O)N[C@@H](CO)C(=O)N[C@@H](CC(=O)O)C(=O)N[C@@H](Cc2ccc(O)cc2)C(=O)N[C@@H](CCCCN)C(=O)N[C@@H](CC(=O)O)C(=O)N[C@@H](CC(=O)O)C(=O)N[C@@H](CC(=O)O)C(=O)N[C@@H](CC(=O)O)C(=O)N[C@@H](CCCCN)C(N)=O)NC(=O)[C@H](CO)NC(=O)[C@H](Cc2c[nH]cn2)NC(=O)[C@H](Cc2ccccc2)NC(=O)[C@H](CC(C)C)NC(=O)[C@H](CCCNC(=N)N)NC(=O)[C@H](Cc2c[nH]c3ccccc23)NC(=O)[C@H](Cc2ccc(O)cc2)NC(=O)[C@H](Cc2ccc(O)cc2)NC(=O)[C@H](CC(C)C)NC(=O)[C@H](Cc2c[nH]cn2)NC(=O)[C@H](CCCNC(=N)N)NC(=O)[C@H](Cc2c[nH]cn2)NC1=O (Ac-MCHRHLYYWRLFHSCGSGSEEGSGSDYKDDDDK-NH2; disulfide 2-15) | 5 | > 10000 | > 10000 | 
CSCC[C@H](NC(C)=O)C(=O)N[C@H]1CSSC[C@@H](C(=O)NCC(=O)N[C@@H](CO)C(=O)NCC(=O)N[C@@H](CO)C(=O)N[C@@H](CC(=O)O)C(=O)N[C@@H](Cc2ccc(O)cc2)C(=O)N[C@@H](CCCCN)C(=O)N[C@@H](CC(=O)O)C(=O)N[C@@H](CC(=O)O)C(=O)N[C@@H](CC(=O)O)C(=O)N[C@@H](CC(=O)O)C(=O)N[C@@H](CCCCN)C(N)=O)NC(=O)[C@H](Cc2ccccc2)NC(=O)[C@H](C(C)C)NC(=O)[C@H](CCCNC(=N)N)NC(=O)[C@H](Cc2c[nH]c3ccccc23)NC(=O)[C@H](Cc2ccc(O)cc2)NC(=O)[C@H](CCC(N)=O)NC(=O)[C@H](C(C)C)NC(=O)[C@H](Cc2ccc(O)cc2)NC(=O)[C@H](Cc2ccc(O)cc2)NC(=O)[C@@H]2CCCN2C1=O (Ac-MCPYYVQYWRVFCGSGSDYKDDDDK-NH2; disulfide 2-13) | 9 | > 10000 | > 10000 | 
CC[C@H](C)[C@@H]1NC(=O)[C@H](CC(C)C)NC(=O)[C@H](Cc2c[nH]c3ccccc23)NC(=O)[C@H](CCCCN)NC(=O)[C@@H]2CCCN2C(=O)[C@@H](NC(=O)[C@H](CCSC)NC(C)=O)CSSC[C@@H](C(=O)NCC(=O)N[C@@H](CO)C(=O)NCC(=O)N[C@@H](CO)C(=O)N[C@@H](CC(=O)O)C(=O)N[C@@H](Cc2ccc(O)cc2)C(=O)N[C@@H](CCCCN)C(=O)N[C@@H](CC(=O)O)C(=O)N[C@@H](CC(=O)O)C(=O)N[C@@H](CC(=O)O)C(=O)N[C@@H](CC(=O)O)C(=O)N[C@@H](CCCCN)C(N)=O)NC(=O)[C@H](CC(N)=O)NC(=O)[C@H](CC(C)C)NC(=O)[C@H](CC(C)C)NC(=O)[C@H](C(C)C)NC(=O)[C@H](CCCCN)NC1=O (Ac-MCPKWLIKVLLNCGSGSDYKDDDDK-NH2; disulfide 2-13) |  | > 10000 | > 10000 | 4190
CC[C@H](C)[C@@H]1NC(=O)[C@@H](NC(=O)[C@H](CCSC)NC(C)=O)CSSC[C@@H](C(=O)NCC(=O)N[C@@H](CO)C(=O)NCC(=O)N[C@@H](CO)C(=O)N[C@@H](CC(=O)O)C(=O)N[C@@H](Cc2ccc(O)cc2)C(=O)N[C@@H](CCCCN)C(=O)N[C@@H](CC(=O)O)C(=O)N[C@@H](CC(=O)O)C(=O)N[C@@H](CC(=O)O)C(=O)N[C@@H](CC(=O)O)C(=O)N[C@@H](CCCCN)C(N)=O)NC(=O)[C@H](CC(C)C)NC(=O)[C@H](CC(C)C)NC(=O)[C@H](Cc2ccc(O)cc2)NC(=O)[C@H](Cc2ccc(O)cc2)NC(=O)[C@H](Cc2ccccc2)NC(=O)[C@H](CC(C)C)NC(=O)[C@H](Cc2c[nH]cn2)NC(=O)[C@H](CC(C)C)NC(=O)[C@H](CC(=O)O)NC(=O)[C@H](CCCCN)NC1=O (Ac-MCIKDLHLFYYLLCGSGSDYKDDDDK-NH2; disulfide 2-14) | 14 | > 10000 | 30 | 
CSCC[C@H](NC(C)=O)C(=O)N[C@H]1CSSC[C@@H](C(=O)NCC(=O)N[C@@H](CO)C(=O)NCC(=O)N[C@@H](CO)C(=O)N[C@@H](CC(=O)O)C(=O)N[C@@H](Cc2ccc(O)cc2)C(=O)N[C@@H](CCCCN)C(=O)N[C@@H](CC(=O)O)C(=O)N[C@@H](CC(=O)O)C(=O)N[C@@H](CC(=O)O)C(=O)N[C@@H](CC(=O)O)C(=O)N[C@@H](CCCCN)C(N)=O)NC(=O)[C@H](C(C)C)NC(=O)[C@H](CCCCN)NC(=O)[C@H](Cc2ccccc2)NC(=O)[C@H](Cc2c[nH]c3ccccc23)NC(=O)[C@H](Cc2ccccc2)NC(=O)[C@H](CCC(=O)O)NC(=O)[C@H](Cc2c[nH]cn2)NC(=O)[C@H](CCC(N)=O)NC(=O)[C@H](CCCCN)NC(=O)[C@H](Cc2ccccc2)NC(=O)[C@H](Cc2c[nH]c3ccccc23)NC(=O)[C@H](Cc2c[nH]c3ccccc23)NC1=O (Ac-MCWWFKQHEFWFKVCGSGSDYKDDDDK-NH2; disulfide 2-15) | 2 | > 10000 | > 10000 | 
